Legend:
Acute Ischemic Stroke = details: cited from earlier work
blood coagulation = test: Phase IV open-label study NeuroAid®/aspirin interaction in healthy volunteers, 5 coagulation tests; assay type: in vivo, human; details: 11 healthy volunteers per group
Experimental: Blood samples of the subjects were collected before they received treatment and 2 and 8 hours after treatment initiation.

acute ischaemic stroke = details: secondary stroke prevention in cerebral stroke patients, aspirin/other antiplatelets/anticoagulant; cited from earlier work
[1] = clinical stroke trials, versus placebo

Row | SMILES | cognitive function as measured by the Mini Mental Status Examination (Acute Ischemic Stroke; [1]) | functional outcome as measured by the Barthel Index and Rankin scale (Acute Ischemic Stroke; [1]) | neurologic evaluation as measured by the NIH stroke scale (Acute Ischemic Stroke; [1]) | complete recovery at 3 months (Acute Ischemic Stroke; oral Citicoline, acute ischemic stroke, Davalos et al. 2002) | Activated Partial Prothrombine Time, Mean (blood coagulation; T + 2 hours) [s] | D-Dimer, Mean (blood coagulation; T + 2 hours) [µg/mL] | Fibrinogen, Mean (blood coagulation; T + 2 hours) [G/L] | Platelet Aggregation, Mean (blood coagulation; T + 2 hours) [Percentage] | D-Dimer, Mean (blood coagulation; T + 8 hours) [µg/mL] | Fibrinogen, Mean (blood coagulation; T + 8 hours) [G/L] | Platelet Aggregation, Mean (blood coagulation; T + 8 hours) [Percentage] | Activated Partial Prothrombine Time, Mean (blood coagulation; T = 0, before treatment) [s] | D-Dimer, Mean (blood coagulation; T = 0, before treatment) [µg/mL] | Fibrinogen, Mean (blood coagulation; T = 0, before treatment) [G/L] | Platelet Aggregation, Mean (blood coagulation; T = 0, before treatment) [Percentage] | Quick Prothrombine Time, Mean (blood coagulation; T = 0, before treatment) [s] | improvement effect (acute ischaemic stroke)
1 | C[N+](C)(C)CCOP(=O)(O)OP(=O)([O-])OC[C@H]1O[C@@H](n2ccc(N)nc2=O)[C@H](O)[C@@H]1O [Citicoline, CDP-choline] | significant difference between the groups, favoring citicoline treatment | significant difference between the groups, favoring citicoline treatment | significant difference between the groups, favoring citicoline treatment | improve complete recovery at 3 months | – | – | – | – | – | – | – | – | – | – | – | – | –
2 | CC(=O)Oc1ccccc1C(=O)O [Aspirin alone, Acetylsalicylic Acid] | – | – | – | – | 39.0 | 0.16 | 3.2 | 62.87 | 0.16 | 3.0 | 48.01 | 38.8 | 0.16 | 3.2 | 62.82 | 12.9 | about 1%

Source: patent US20090162459A1, “Combination Therapy for Treatment of Patients with Neurological Disorders and Cerebral Infarction” (priority 2006, published 2009)
